Consider one compound from patent US5856189A, “Cell culture model for drug bioavailability” (priority 1997, dated 1999).

As a reminder, the Km is the substrate concentration at which the rate is half of its maximum.

One data set relates to CYP3A. Conditions: K. E. Thummel et al.; cited from earlier work.
A short description of data set [1]: Intrinsic 1'-OH-MDZ formation clearance, human jejunal mucosa/microsomes. Type of data set: in vitro ADME. Conditions: jejunal microsomes; eight human jejunal preparations, Vmax/Km; read-out: Microsomal intrinsic clearance (1'-OH-MDZ formation), jejunum.
Description: (§1) For comparison, an intrinsic 1'-OH-MDZ formation clearance was determined for eight paired human duodenal and jejunal mucosae. The mucosal mass was removed from ~1 foot sections of duodenum and jejunum and total homogenate and microsomes were prepared, as described above. […] Microsomes were incubated with varying concentrations of MDZ for determination of Km and Vmax parameters for 1'-hydroxylation.
(§2) The total amount of microsomal protein per gram of mucosa was determined from the following relationship: [formula] This calculation assumes that CYP3A4 found in mucosal homogenate resides exclusively within the microsomal fraction. The microsomal intrinsic formation clearance was calculated as the ratio of Vmax to Km. The intrinsic 1'-OH-MDZ formation clearance per gram of mucosa was calculated as the product of the microsomal intrinsic formation clearance and the computed amount of microsomal protein per gram of mucosa.
The test system of data set [2] is human jejunal microsomes (CYP3A). The description is as above. Conditions: eight human jejunal preparations, Vmax/Km; listed as MDZ. It is filed as in vitro ADME.
Description: as §1, §2
For data set [3] the following is noted: M. F. Paine et al.; cited from earlier work.
Data set [4] is described as follows: Intrinsic 1'-OH-MDZ formation clearance, human duodenal mucosa/microsomes. Conditions: duodenal microsomes; eight human duodenal preparations, Vmax/Km; read-out: Microsomal intrinsic clearance (1'-OH-MDZ formation), duodenum. It is filed as in vitro ADME.
Description: as §1, §2
Data set [5] relates to human duodenal microsomes (CYP3A). The description is as above. Conditions: eight human duodenal preparations, Vmax/Km; listed as MDZ. It is filed as in vitro ADME.
Description: as §1, §2
The subject of the next data set is Caco-2 cells. Kind of data set: Apical/basolateral distribution of midazolam and metabolite across Caco-2 monolayers.
The target of a further data set is CYP3A (Caco-2 cells) (Homo sapiens, UniProt P08684).
Chain of CYP3A (Caco-2 cells) (P08684 2-503): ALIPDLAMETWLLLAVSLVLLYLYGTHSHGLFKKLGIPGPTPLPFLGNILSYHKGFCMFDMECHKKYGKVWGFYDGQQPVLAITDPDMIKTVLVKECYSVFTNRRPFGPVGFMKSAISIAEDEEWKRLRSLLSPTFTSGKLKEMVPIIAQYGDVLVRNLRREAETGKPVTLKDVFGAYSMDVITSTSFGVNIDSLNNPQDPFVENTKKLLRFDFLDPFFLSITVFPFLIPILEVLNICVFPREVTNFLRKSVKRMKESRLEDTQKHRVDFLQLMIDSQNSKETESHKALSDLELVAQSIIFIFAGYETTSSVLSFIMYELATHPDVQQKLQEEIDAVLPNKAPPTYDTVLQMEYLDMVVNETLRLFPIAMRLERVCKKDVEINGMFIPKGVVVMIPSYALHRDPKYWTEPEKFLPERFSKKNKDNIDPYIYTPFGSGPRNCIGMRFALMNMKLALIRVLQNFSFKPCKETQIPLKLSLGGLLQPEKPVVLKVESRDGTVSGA
Where [6] appears, read: 1α,25-(OH)2 -D3 pretreated cells.

Description for CYP3A (Caco-2 cells): Standards were also prepared in duplicate. Known amounts of MDZ and 1'-OH-MDZ (1-50 ng) were combined with 100 mM potassium phosphate buffer, pH 7.4.
Unknowns and standards were extracted with 5 mL ethyl acetate and the upper organic layer transferred to clean tubes. The solvent was evaporated to dryness under a stream of nitrogen. The remaining solvent was reconstituted in 100 μL derivatizing reagent (10% N-methyl-N-(t-butyldimethylsilyl)trifluoroacetamide in acetonitrile).
At the end of this period, the medium was replaced with medium not containing vitamin D (except that contributed by the 5% FBS). Next, 4 μM MDZ was added to the apical (luminal) or basolateral (serosal) medium of the cells.
Parent drug and metabolite concentrations measured at 1 and 2 hours after MDZ administration were used for computation. The amount of 1'-OH-MDZ formed during this interval was determined as the sum of metabolite in the apical and basolateral compartments at 2 hours minus the total amount measured at 1 hour.
Because the incubation medium contained significant amounts of FBS, the fraction of MDZ bound to culture medium proteins was measured by equilibrium dialysis. […] The unbound concentration of MDZ in the apical and basolateral compartments during cell culture was calculated as the product of the experimentally determined MDZ-free fraction and total MDZ concentration. Since MDZ concentrations in the apical and basolateral compartments were not at equilibrium during the 1-2 hour MDZ incubation interval, the intracellular reaction was assumed to be driven by a MDZ concentration that was more closely aligned with the concentration in the basolateral compartment.
At the end of this period, the medium was replaced with medium containing neither serum nor vitamin D. Next, MDZ (4 μM) was added to the apical compartment.

Regarding `Cc1ncc2n1-c1ccc(Cl)cc1C(c1ccccc1F)=NC2` [midazolam], in the data set on CYP3A, the Km is roughly 3.4 µM. In addition, the microsomal CLint in data set [1] amounted to 118 ± 98.2 µL/min/mg. For the same compound, in data set [2], the “Microsomal intrinsic clearance (1'-OH-MDZ formation), jejunum” value is on record as 118.3 μl/min/mg protein. The “site of midazolam glucuronidation in vivo” value in data set [3] is “occurs primarily in the liver and not in the intestine in vivo”. Further, the microsomal CLint in data set [4] was determined as 134 ± 109 µL/min/mg. The “Microsomal intrinsic clearance (1'-OH-MDZ formation), duodenum” value in data set [5] is on record as 133.8 μl/min/mg protein. Moreover, the “apical-to-basolateral concentration gradient of parent compound” value in the data set on Caco-2 cells (apical administration of 4 μM MDZ, 12-24 h) is “approximately 1.4 fold”. Further, the “distribution of parent compound after basolateral administration” value in the data set on Caco-2 cells (by 12 hours) was “distributed preferentially to the apical medium”. In addition, the “predicted unbound intracellular MDZ concentration in Caco-2 cells” value at CYP3A (Caco-2 cells) is recorded as ~ 0.07 μM. The “rate of 1'-OH-MDZ formation over time” value on CYP3A (Caco-2 cells) (0-24 h, FIG. 6A) is listed as “remained roughly constant after 6 hours”. Further, the “time until 1'-OH-MDZ detectable after MDZ administration” value on CYP3A (Caco-2 cells) (4 μM MDZ to either compartment, cells treated with 0.25 μM 1α,25-(OH)2 -D3) is no more than 1 h. Moreover, the “1'-Hydroxymidazolam formation rate” value at CYP3A (Caco-2 cells) (1-2 h incubation interval, 4 μM MDZ apical) is recorded as 75.9 pmol/min/g cells. Also, at CYP3A (Caco-2 cells) (1-2 h interval), the “unbound midazolam concentration, apical” value is given as 280 nM and the “unbound midazolam concentration, basolateral” value was determined as 66.3 nM. Besides, on CYP3A (Caco-2 cells) (1-2 h interval, non-saturating), the “intrinsic 1'-OH-MDZ formation clearance, Caco-2 cells” value was found to be 1.14 ml/min/g cells. Further, on CYP3A (Caco-2 cells) (1-2 h interval, total), the “average midazolam concentration, apical” value is recorded as 2740 nM and the “average midazolam concentration, basolateral” value worked out at 650 nM. On CYP3A (Caco-2 cells) (setting [6]), the “intrinsic 1'-OH-MDZ formation clearance of Caco-2 cells as percent of duodenal mucosa” value is on record as 30% and the “intrinsic 1'-OH-MDZ formation clearance of Caco-2 cells as percent of jejunal mucosa” value was 31%.
